The series can be described thus: activity coefficient (dimensionless); of the first substance listed, at infinite dilution; xn = mol fraction of the nth substance listed. To be noted: 101.33 kPa, Liquid, Chromatography, x1 = 0.

Numbers after ± are expanded uncertainties.

Regarding `CCC(C)CC` [3-methylpentane] + CCCCCCCCCCCCn1cc[n+](C)c1.O=S(=O)([N-]S(=O)(=O)C(F)(F)F)C(F)(F)F, the activity coefficient runs as follows: (318.15 K) 2.77 ± 0.19; (328.15 K) 2.83 ± 0.19; (338.15 K) 2.89 ± 0.2; (348.15 K) 2.94 ± 0.2; (358.15 K) 2.99 ± 0.2; (368.15 K) 3.04 ± 0.21.

Take `C1CCOC1` [tetrahydrofuran] + CCCCCCCCCCCCn1cc[n+](C)c1.O=S(=O)([N-]S(=O)(=O)C(F)(F)F)C(F)(F)F: the activity coefficient stood at 0.394 ± 0.034 (318.15 K); 0.417 ± 0.035 (328.15 K); 0.44 ± 0.04 (338.15 K); 0.462 ± 0.036 (348.15 K); 0.484 ± 0.037 (358.15 K); 0.508 ± 0.038 (368.15 K).

Take `CCC(=O)CC` [pentan-3-one] + CCCCCCCCCCCCn1cc[n+](C)c1.O=S(=O)([N-]S(=O)(=O)C(F)(F)F)C(F)(F)F: the activity coefficient (318.15 K) came out at 0.418 ± 0.035; the activity coefficient (328.15 K) is 0.444 ± 0.036; the activity coefficient (338.15 K) came to 0.47 ± 0.037; the activity coefficient (348.15 K) stood at 0.496 ± 0.038; the activity coefficient (358.15 K) amounted to 0.521 ± 0.039; the activity coefficient (368.15 K) was 0.546 ± 0.04.

`CCC(C)O` (centres undefined) [butan-2-ol] + CCCCCCCCCCCCn1cc[n+](C)c1.O=S(=O)([N-]S(=O)(=O)C(F)(F)F)C(F)(F)F: the activity coefficient runs as follows: (318.15 K) 1.29 ± 0.08; (328.15 K) 1.23 ± 0.08; (338.15 K) 1.18 ± 0.08; (348.15 K) 1.13 ± 0.07; (358.15 K) 1.09 ± 0.07; (368.15 K) 1.05 ± 0.07.

`CCOC(C)=O` [ethyl acetate] + CCCCCCCCCCCCn1cc[n+](C)c1.O=S(=O)([N-]S(=O)(=O)C(F)(F)F)C(F)(F)F: the activity coefficient amounted to 0.541 ± 0.04 (318.15 K); 0.567 ± 0.041 (328.15 K); 0.593 ± 0.042 (338.15 K); 0.619 ± 0.043 (348.15 K); 0.645 ± 0.044 (358.15 K); 0.67 ± 0.045 (368.15 K).

With `C=CCCCCC` [1-heptene] + CCCCCCCCCCCCn1cc[n+](C)c1.O=S(=O)([N-]S(=O)(=O)C(F)(F)F)C(F)(F)F, the activity coefficient is 2.56 ± 0.17 (318.15 K); 2.62 ± 0.18 (328.15 K); 2.68 ± 0.18 (338.15 K); 2.74 ± 0.19 (348.15 K); 2.8 ± 0.19 (358.15 K); 2.85 ± 0.19 (368.15 K).

For `CCCCCC` [hexane] + CCCCCCCCCCCCn1cc[n+](C)c1.O=S(=O)([N-]S(=O)(=O)C(F)(F)F)C(F)(F)F, the activity coefficient turned out to be 2.96 ± 0.2 (318.15 K); 3.02 ± 0.21 (328.15 K); 3.09 ± 0.21 (338.15 K); 3.14 ± 0.21 (348.15 K); 3.2 ± 0.22 (358.15 K); 3.26 ± 0.22 (368.15 K).

For `CCCC=O` [butanal] + CCCCCCCCCCCCn1cc[n+](C)c1.O=S(=O)([N-]S(=O)(=O)C(F)(F)F)C(F)(F)F, the activity coefficient came to 0.464 ± 0.036 (318.15 K); 0.486 ± 0.037 (328.15 K); 0.51 ± 0.038 (338.15 K); 0.531 ± 0.039 (348.15 K); 0.554 ± 0.04 (358.15 K); 0.575 ± 0.041 (368.15 K).

As for `Cc1ccccc1` [toluene] + CCCCCCCCCCCCn1cc[n+](C)c1.O=S(=O)([N-]S(=O)(=O)C(F)(F)F)C(F)(F)F, the activity coefficient was determined as 0.699 ± 0.047 (318.15 K); 0.732 ± 0.048 (328.15 K); 0.765 ± 0.05 (338.15 K); 0.8 ± 0.052 (348.15 K); 0.832 ± 0.054 (358.15 K); 0.864 ± 0.055 (368.15 K).

As for `CCCC(=O)OC` [methyl butanoate] + CCCCCCCCCCCCn1cc[n+](C)c1.O=S(=O)([N-]S(=O)(=O)C(F)(F)F)C(F)(F)F, the activity coefficient reads like this: (318.15 K) 0.613 ± 0.043; (328.15 K) 0.643 ± 0.044; (338.15 K) 0.674 ± 0.046; (348.15 K) 0.704 ± 0.047; (358.15 K) 0.733 ± 0.049; (368.15 K) 0.762 ± 0.05.

Turning to `CCOC(C)(C)C` [2-ethoxy-2-methylpropane] + CCCCCCCCCCCCn1cc[n+](C)c1.O=S(=O)([N-]S(=O)(=O)C(F)(F)F)C(F)(F)F, the activity coefficient by setting is: (318.15 K) 1.55 ± 0.1; (328.15 K) 1.62 ± 0.11; (338.15 K) 1.69 ± 0.11; (348.15 K) 1.75 ± 0.12; (358.15 K) 1.82 ± 0.12; (368.15 K) 1.88 ± 0.13.

As for `CCOCC` [diethyl ether] + CCCCCCCCCCCCn1cc[n+](C)c1.O=S(=O)([N-]S(=O)(=O)C(F)(F)F)C(F)(F)F, the activity coefficient is, setting by setting: (318.15 K) 0.983 ± 0.062; (328.15 K) 1.03 ± 0.06; (338.15 K) 1.07 ± 0.07; (348.15 K) 1.12 ± 0.07; (358.15 K) 1.16 ± 0.07; (368.15 K) 1.2 ± 0.08.

Regarding `Cc1ccc(C)cc1` [1,4-dimethylbenzene] + CCCCCCCCCCCCn1cc[n+](C)c1.O=S(=O)([N-]S(=O)(=O)C(F)(F)F)C(F)(F)F, the activity coefficient is 0.869 ± 0.056 (318.15 K); 0.914 ± 0.058 (328.15 K); 0.958 ± 0.06 (338.15 K); 1 ± 0.06 (348.15 K); 1.05 ± 0.07 (358.15 K); 1.09 ± 0.07 (368.15 K).

Regarding `COC(C)=O` [methyl ethanoate] + CCCCCCCCCCCCn1cc[n+](C)c1.O=S(=O)([N-]S(=O)(=O)C(F)(F)F)C(F)(F)F, the activity coefficient (318.15 K) was 0.503 ± 0.038; the activity coefficient (328.15 K) was 0.525 ± 0.039; the activity coefficient (338.15 K) came out at 0.546 ± 0.04; the activity coefficient (348.15 K) amounted to 0.566 ± 0.041; the activity coefficient (358.15 K) stood at 0.586 ± 0.042; the activity coefficient (368.15 K) was 0.606 ± 0.042.

For `C1CCCCC1` [cyclohexane] + CCCCCCCCCCCCn1cc[n+](C)c1.O=S(=O)([N-]S(=O)(=O)C(F)(F)F)C(F)(F)F, the activity coefficient reads like this: (318.15 K) 2.14 ± 0.15; (328.15 K) 2.15 ± 0.15; (338.15 K) 2.17 ± 0.15; (348.15 K) 2.18 ± 0.15; (358.15 K) 2.19 ± 0.15; (368.15 K) 2.21 ± 0.15.

Turning to `C1COCCO1` [1,4-dioxane] + CCCCCCCCCCCCn1cc[n+](C)c1.O=S(=O)([N-]S(=O)(=O)C(F)(F)F)C(F)(F)F, the activity coefficient runs as follows: (318.15 K) 0.474 ± 0.037; (328.15 K) 0.499 ± 0.038; (338.15 K) 0.524 ± 0.039; (348.15 K) 0.548 ± 0.04; (358.15 K) 0.572 ± 0.041; (368.15 K) 0.597 ± 0.042.

With `CCCCCCC` [heptane] + CCCCCCCCCCCCn1cc[n+](C)c1.O=S(=O)([N-]S(=O)(=O)C(F)(F)F)C(F)(F)F, the activity coefficient came out at 3.55 ± 0.24 (318.15 K); 3.6 ± 0.25 (328.15 K); 3.65 ± 0.25 (338.15 K); 3.7 ± 0.25 (348.15 K); 3.74 ± 0.25 (358.15 K); 3.78 ± 0.26 (368.15 K).

Take `CCCCC` [pentane] + CCCCCCCCCCCCn1cc[n+](C)c1.O=S(=O)([N-]S(=O)(=O)C(F)(F)F)C(F)(F)F: the activity coefficient runs as follows: (318.15 K) 2.55 ± 0.17; (328.15 K) 2.6 ± 0.18; (338.15 K) 2.66 ± 0.18; (348.15 K) 2.71 ± 0.18; (358.15 K) 2.76 ± 0.19; (368.15 K) 2.81 ± 0.19.

As for `C=Cc1ccccc1` [styrene] + CCCCCCCCCCCCn1cc[n+](C)c1.O=S(=O)([N-]S(=O)(=O)C(F)(F)F)C(F)(F)F, the activity coefficient (318.15 K) was determined as 0.632 ± 0.044; the activity coefficient (328.15 K) came out at 0.666 ± 0.045; the activity coefficient (338.15 K) was determined as 0.702 ± 0.047; the activity coefficient (348.15 K) was determined as 0.736 ± 0.049; the activity coefficient (358.15 K) stood at 0.771 ± 0.05; the activity coefficient (368.15 K) amounted to 0.804 ± 0.052.
